From US8937056B2, “Multikinase inhibitors for use in the treatment of cancer” (Eisai R&D Management Co., Ltd., priority 2007, dated 2015)

Key:
[1] = molecular target: T1, Flt3 (Homo sapiens, UniProt P36888); test: Kinase inhibition, full range of concentrations; assay type: biochemical; conditions: 10 μM ATP, duplicate measurements
T1 sequence (P36888 27-993): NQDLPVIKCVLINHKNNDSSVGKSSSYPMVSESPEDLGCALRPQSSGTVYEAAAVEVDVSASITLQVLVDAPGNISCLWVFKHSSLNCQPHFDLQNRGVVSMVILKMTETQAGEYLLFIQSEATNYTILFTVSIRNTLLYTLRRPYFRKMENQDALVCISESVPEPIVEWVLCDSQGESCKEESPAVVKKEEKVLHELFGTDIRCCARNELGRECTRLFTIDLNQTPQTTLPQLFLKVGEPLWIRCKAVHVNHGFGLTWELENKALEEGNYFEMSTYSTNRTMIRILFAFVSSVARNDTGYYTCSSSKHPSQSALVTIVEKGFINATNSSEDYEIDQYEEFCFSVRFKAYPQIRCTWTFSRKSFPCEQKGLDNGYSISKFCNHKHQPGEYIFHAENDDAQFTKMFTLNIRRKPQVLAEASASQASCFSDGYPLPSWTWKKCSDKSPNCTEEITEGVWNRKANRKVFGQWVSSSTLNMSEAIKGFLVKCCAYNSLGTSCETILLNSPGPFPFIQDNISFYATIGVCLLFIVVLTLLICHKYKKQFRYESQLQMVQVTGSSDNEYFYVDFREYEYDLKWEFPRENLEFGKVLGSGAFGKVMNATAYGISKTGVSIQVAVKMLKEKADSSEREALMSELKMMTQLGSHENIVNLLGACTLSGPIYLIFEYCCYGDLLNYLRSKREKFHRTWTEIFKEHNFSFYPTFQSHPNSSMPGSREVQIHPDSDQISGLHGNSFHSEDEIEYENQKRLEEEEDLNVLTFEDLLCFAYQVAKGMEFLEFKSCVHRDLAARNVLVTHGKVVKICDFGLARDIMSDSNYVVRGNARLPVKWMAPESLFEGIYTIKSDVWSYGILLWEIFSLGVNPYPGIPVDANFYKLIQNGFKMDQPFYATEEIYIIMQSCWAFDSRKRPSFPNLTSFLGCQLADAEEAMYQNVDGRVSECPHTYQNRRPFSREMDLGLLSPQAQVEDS
Experimental: (§1) In a final reaction volume of 25 μL, each human enzyme was incubated with appropriate buffer. The reaction was initiated by the addition of the MgATP mix with [γ^33P-ATP]. After incubation for 40 minutes at room temperature, the reaction was stopped by the addition of 5 μL of a phosphoric acid solution. All assays were performed at an ATP concentration of 10 μM.
(§2) 10 μL of the reaction was spotted onto a P30 filtermat and washed three times for 5 minutes in a phosphoric acid solution. ^33P transferred to a substrate peptide was then determined by scintillation counting. The results were expressed as a percentage of that in control incubations.
(§3) Furthermore, inhibitory activities of the compounds were confirmed against six of these kinases with a full range of concentrations. Three cytoplasmic Src family kinases were studied: c-Src, Fyn and Lyn. We also studied cytoplasmic Abl kinase and two receptor tyrosine kinases: Flt3, and TrkB. A standard ATP concentration of 10 μM was used in all reactions. All experiments were conducted with duplicate measurements. […] TrkB and members of the Src family were the most sensitive enzymes to Compound 091 inhibition.

[2] = molecular target: c-Src (Homo sapiens, UniProt P12931); test: Kinase inhibition, full range of concentrations; assay type: biochemical; conditions: 10 μM ATP, duplicate measurements
Experimental: as §1, §2, §3

[3] = molecular target: Lyn (Homo sapiens, UniProt P07948); test: Kinase inhibition, full range of concentrations; assay type: biochemical; conditions: 10 μM ATP, duplicate measurements
Experimental: as §1, §2, §3

[4] = molecular target: TrkB (Homo sapiens, UniProt Q16620); test: Kinase inhibition, full range of concentrations; assay type: biochemical; conditions: 10 μM ATP, duplicate measurements
Experimental: as §1, §2, §3

[5] = molecular target: Abl kinase (Homo sapiens, UniProt P00519); test: Kinase inhibition, full range of concentrations; assay type: biochemical; conditions: 10 μM ATP, duplicate measurements
Experimental: as §1, §2, §3

[6] = molecular target: Fyn (Homo sapiens, UniProt P06241); test: Kinase inhibition, full range of concentrations; assay type: biochemical; conditions: 10 μM ATP, duplicate measurements
Experimental: as §1, §2, §3

[7] = tested on: human hematologic cancer cell lines; test: Antiproliferative effects in hematologic cancer cell lines (MTT assay); assay type: cell-based; conditions: two cell lines derived from B-cell non-Hodgkin's lymphoma, 96 h
Experimental: A study was carried out to investigate anticancer activity of compounds 091 and 106 in a panel of human hematologic cancer cell lines in vitro. Antiproliferative effects of compounds 091 and 106 were evaluated in 7 human cancer cell lines representing several different cancer types of hematologic malignancy. […] Cell growth was assessed using the MTT assay.

Abl kinase, sequence (P00519 whole entry): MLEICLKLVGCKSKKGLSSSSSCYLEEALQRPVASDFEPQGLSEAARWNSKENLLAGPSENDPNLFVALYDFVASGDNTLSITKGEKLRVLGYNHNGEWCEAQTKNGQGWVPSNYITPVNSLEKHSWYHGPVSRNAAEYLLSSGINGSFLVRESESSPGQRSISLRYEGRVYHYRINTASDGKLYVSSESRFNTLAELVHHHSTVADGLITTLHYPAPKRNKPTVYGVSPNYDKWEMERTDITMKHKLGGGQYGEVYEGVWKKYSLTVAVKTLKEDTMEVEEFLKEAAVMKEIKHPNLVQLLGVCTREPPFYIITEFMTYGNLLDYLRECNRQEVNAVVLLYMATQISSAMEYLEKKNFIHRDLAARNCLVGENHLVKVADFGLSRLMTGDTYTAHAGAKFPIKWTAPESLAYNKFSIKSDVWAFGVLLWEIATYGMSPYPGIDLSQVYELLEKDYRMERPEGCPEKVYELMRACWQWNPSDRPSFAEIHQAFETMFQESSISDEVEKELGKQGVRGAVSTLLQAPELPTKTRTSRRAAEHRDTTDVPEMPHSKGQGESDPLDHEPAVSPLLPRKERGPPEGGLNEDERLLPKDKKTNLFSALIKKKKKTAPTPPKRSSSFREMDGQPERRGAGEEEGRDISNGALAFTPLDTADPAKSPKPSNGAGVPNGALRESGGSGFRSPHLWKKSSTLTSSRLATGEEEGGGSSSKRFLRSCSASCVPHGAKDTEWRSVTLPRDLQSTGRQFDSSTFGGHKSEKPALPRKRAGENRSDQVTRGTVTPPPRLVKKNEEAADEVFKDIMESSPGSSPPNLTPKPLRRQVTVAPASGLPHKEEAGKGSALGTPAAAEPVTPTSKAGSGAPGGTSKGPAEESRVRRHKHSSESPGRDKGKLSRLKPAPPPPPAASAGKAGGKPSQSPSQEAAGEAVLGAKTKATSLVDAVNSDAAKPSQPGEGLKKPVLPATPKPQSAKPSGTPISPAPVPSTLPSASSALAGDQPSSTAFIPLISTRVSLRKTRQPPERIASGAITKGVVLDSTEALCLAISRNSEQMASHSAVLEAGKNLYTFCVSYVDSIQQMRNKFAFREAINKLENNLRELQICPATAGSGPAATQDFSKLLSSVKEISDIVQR
Fyn, sequence (P06241 whole entry): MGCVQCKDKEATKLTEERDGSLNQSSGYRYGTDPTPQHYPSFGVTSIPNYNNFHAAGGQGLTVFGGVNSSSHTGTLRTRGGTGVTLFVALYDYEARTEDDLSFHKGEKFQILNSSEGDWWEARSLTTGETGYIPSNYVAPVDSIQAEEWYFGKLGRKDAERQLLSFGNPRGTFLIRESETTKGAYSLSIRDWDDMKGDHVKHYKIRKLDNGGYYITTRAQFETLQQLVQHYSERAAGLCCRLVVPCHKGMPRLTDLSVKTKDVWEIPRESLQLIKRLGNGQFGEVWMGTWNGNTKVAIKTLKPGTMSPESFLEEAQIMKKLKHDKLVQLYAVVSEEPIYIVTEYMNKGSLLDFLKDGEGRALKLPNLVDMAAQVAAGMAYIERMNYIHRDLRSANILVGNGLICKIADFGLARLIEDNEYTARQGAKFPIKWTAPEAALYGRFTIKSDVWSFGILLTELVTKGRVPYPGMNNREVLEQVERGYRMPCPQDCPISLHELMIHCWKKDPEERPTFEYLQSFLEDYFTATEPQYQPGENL
Lyn, sequence (P07948 whole entry): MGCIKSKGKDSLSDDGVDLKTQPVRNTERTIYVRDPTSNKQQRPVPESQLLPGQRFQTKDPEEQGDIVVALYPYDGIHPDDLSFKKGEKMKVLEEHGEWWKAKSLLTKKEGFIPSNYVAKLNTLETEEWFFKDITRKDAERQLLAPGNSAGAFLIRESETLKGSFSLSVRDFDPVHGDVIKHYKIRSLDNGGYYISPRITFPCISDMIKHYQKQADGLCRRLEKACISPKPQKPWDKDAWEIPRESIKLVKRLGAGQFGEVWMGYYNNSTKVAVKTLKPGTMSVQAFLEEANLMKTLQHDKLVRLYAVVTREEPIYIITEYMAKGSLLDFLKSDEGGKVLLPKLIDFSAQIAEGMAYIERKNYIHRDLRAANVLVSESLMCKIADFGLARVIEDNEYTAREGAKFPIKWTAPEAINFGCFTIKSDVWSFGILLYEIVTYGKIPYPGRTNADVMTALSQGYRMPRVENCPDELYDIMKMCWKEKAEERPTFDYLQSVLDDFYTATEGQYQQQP
c-Src, sequence (P12931 whole entry): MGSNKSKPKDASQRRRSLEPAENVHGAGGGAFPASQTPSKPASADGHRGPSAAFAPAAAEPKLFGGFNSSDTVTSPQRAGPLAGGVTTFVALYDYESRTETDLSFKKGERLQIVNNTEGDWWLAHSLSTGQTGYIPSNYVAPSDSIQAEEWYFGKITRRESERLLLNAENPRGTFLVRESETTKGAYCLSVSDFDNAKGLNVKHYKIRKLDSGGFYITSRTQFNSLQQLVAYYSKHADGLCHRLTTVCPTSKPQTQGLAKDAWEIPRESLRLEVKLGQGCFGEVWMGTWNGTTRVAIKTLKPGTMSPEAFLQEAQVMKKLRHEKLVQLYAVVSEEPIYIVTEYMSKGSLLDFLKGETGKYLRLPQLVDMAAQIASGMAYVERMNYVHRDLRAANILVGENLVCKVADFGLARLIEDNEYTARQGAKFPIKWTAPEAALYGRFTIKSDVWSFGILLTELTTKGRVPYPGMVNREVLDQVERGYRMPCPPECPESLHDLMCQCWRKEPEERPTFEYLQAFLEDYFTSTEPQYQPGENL
TrkB, sequence (Q16620 32-822): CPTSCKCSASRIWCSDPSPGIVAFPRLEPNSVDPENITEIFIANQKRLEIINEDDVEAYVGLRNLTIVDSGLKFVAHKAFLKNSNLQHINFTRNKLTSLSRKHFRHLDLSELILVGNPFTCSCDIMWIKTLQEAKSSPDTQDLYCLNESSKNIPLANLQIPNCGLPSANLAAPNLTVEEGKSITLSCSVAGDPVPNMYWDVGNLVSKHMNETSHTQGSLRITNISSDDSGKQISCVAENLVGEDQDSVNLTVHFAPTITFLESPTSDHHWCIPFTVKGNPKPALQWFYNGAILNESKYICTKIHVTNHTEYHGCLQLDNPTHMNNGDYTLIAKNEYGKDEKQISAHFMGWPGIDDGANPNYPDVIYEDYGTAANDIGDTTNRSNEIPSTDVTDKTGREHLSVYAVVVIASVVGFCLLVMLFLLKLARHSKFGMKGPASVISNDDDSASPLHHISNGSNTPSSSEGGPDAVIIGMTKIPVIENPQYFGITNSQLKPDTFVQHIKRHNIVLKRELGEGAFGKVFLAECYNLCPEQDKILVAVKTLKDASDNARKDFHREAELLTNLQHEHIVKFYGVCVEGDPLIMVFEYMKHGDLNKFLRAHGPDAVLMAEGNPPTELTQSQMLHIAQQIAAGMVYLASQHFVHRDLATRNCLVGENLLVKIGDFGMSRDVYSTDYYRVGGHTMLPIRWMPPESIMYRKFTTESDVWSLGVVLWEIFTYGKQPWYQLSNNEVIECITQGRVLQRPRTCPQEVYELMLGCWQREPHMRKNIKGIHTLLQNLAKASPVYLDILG

CNc1cc(O)c2c(c1)/C=C/C[C@H](O)[C@H](O)C(=O)/C=C\[C@@H](C)[C@H](C)OC2=O [Compound 091]
IC50 [1]: < 214 nM
IC50 [2]: < 214 nM
IC50 [3]: < 214 nM
IC50 [4]: < 214 nM
IC50 [5]: < 214 nM
IC50 [6]: < 214 nM
sensitivity of cell growth [7]: sensitive
